“Also recorded” adds a separate entry of the source.
Experiments:
firefly luciferase = test: In vitro siRNA transfection assay (luciferase silencing) in HeLa cells with apolipoproteins; assay type: cell-based; conditions: for order of silencing effects: with addition of ApoE3 (ApoE), siRNA 50 ng/well
Experimental: HeLa cells, stably expressing firefly luciferase and Renilla luciferase, were seeded (14,000 cells/well) into each well of an opaque white 96-well plate (Corning-Costar) and allowed to attach overnight in growth medium. Growth medium was composed of 90% phenol red-free DMEM, 10% FBS, 100 units/ml penicillin, […] streptomycin (Invitrogen). Cells were transfected with LNPs formulated with anti-luciferase siRNA by addition of formulated particles to growth medium. Transfections were performed in quadruplicate. Cells were allowed to grow for 1 d at 37° C., 5% CO2 and were then analyzed for luciferase expression. Control experiments were performed with Lipofectamine 2000, as described by the vendor (Invitrogen). Firefly and Renilla luciferase expression was analyzed using Dual-Glo assay kits (Promega). Luminescence was measured using a Victor3 luminometer (Perkin Elmer). Effects of apolipoproteins were evaluated through an in vitro siRNA transfection assay in HeLa cells as previously reported. HeLa cells, stably expressing firefly luciferase and Renilla luciferase were seeded in an opaque white 96-well plate (Corning-Costar) overnight. Cells were transfected by cKK-E12 formulated with 50 ng of firefly-specific siLuc in quadruplicate. Apolipoproteins (Fitzgerald Industries) were incubated with cKK-E12 formulations for 5 mins before adding to cells. After 24 h incubation at 37° C., 5% CO2, cells were analyzed for luciferase expression using Dual-Glo assay kits (Promega). For visualization of cell uptake, cKK-E12 was formulated with an Alexa-Fluor siRNA and incubated with Hela cells for 3 h. Cells were then fixed in 4% paraformaldehyde, permeabilized with 0.1% saponin and stained with Hoescht. All images were acquired using an Opera spinning disc confocal system (Perkin Elmer), and the data was analyzed using Acapella Software (Perkin Elmer).

Factor VII = test: In vivo Factor VII gene silencing in mice; design: species or system C57BL/6 mice
Experimental: APPL, distearoyl phosphatidylcholine (DSPC), cholesterol and mPEG2000-DMG were solubilized in 90% ethanol at a molar ratio of 50:10:38.5:1.5. The siRNA (against firefly luciferase or fVII) was solubilized in 10 mM citrate, pH 3 buffer at a concentration of 0.4 mg/mL. The ethanolic lipid solution and the aqueous siRNA solution were pumped by means of a syringe pump through a microfluidic mixing chamber to spontaneously form siRNA-containing lipid nanoparticles. Lipids were combined with siRNA at a total lipid to siRNA ratio of 7:1 (wt:wt). These formulations were dialyzed against PBS to remove ethanol and exchange buffer. […]
C57BL/6 mice (Charles River Labs) were used for siRNA silencing experiments. […] After 48 or 72 h, body-weight gain/loss was measured and mice were anaesthetized by isofluorane inhalation for blood sample collection by retroorbital eye bleed. Serum was isolated with serum separation tubes (Falcon tubes, Becton Dickinson) and Factor VII protein levels were analyzed by chromogenic assay (Biophen FVII, Aniara Corporation). A standard curve was constructed using samples from PBS-injected mice and relative Factor VII expression was determined by comparing treated groups to untreated PBS control. […]

Structure (SMILES)	order of silencing effects (firefly luciferase)	luciferase silencing, relative potency (firefly luciferase; without addition of ApoE3, siRNA 50 ng/well)	Factor VII silencing, relative potency (Factor VII; lower dose of 0.1 mg/kg, 0.1 mg/kg)	Factor VII silencing, relative potency (Factor VII; siRNA formulation, systemic administration, dose of 1 mg/kg)
CCCCCCCCCCCCN(CCCCCCCCCCCC)CCCCC1NC(=O)C(CCCCN(CCCCCCCCCCCC)CCCCCCCCCCCC)NC1=O (centres unmarked) [cKK-A12]	cKK-E12>cKK-A12>cKK-O12	more potent than cKK-E12 and cKK-O12	–	–
CCCCCCCCCCC(O)CN(CCCCC1NC(=O)C(CCCCN(CC(O)CCCCCCCCCC)CC(O)CCCCCCCCCC)NC1=O)CC(O)CCCCCCCCCC (centres unmarked) [cKK-E12]	cKK-E12>cKK-A12>cKK-O12	–	lead compound; also recorded: most potent material	more potent than aldehyde and acrylate derivatives

From patent US9512073B2, “Amino acid-, peptide-and polypeptide-lipids, isomers, compositions, and uses thereof” (Massachusetts Institute of Technology, priority 2011, dated 2016)
